This is an account of results in patent US7985586B2, “Oligodendrocyte precursor cell composition and methods of use” (Georgia Health Sciences University, priority 2008, dated 2011).

Series [1] relates to oligodendrocyte precursors (ODPCs) from EB-derived cells. The experiment in a line: Generation of iODPCs from EB-derived cells treated with S18 and S1P or S1P analogs. The following applies: for effect on the number of ODPCs / ODPCs [% of total cells]: S1P 1 μM, VPC24191 or SEW2871 300 nM, FTY720 300 nM; for increase of the number of oligodendrocyte precursors (ODPCs): in vitro, combination with S18; for ODPCs [% of total cells]: in combination with S18, n=4 independent experiments. The series is classed as cell-based, mouse. Here is the method: Pre-implantation blastocyst-derived ES cells (ES-J1, Rosa26, E14) were grown on γ-irradiated feeder fibroblasts, and neural differentiation was induced by serum deprivation of EBs as previously described. Attached EBs were dissociated and EB-derived cells (EBCs) plated on polyornithin/laminin-coated dishes. At this stage, cells were grown in DMEM/F12 supplemented with N2 and FGF-2 (EB medium). EBCs acquire all characteristics of genuine NPCs, including expression of nestin. Sox1, and FGFR1. In the presence of FGF-2, NPCs can be dissociated and propagated at >80% homogeneity.
(§1) This protocol was modified using S18 or S1P (or its analogs) for incubation of differentiating ES cells at the EB stage prior to and after dissociation. After incubation with 50-100 μM S18 and/or 0.1-2 μM S1P or S1P analogs for 48 h, EBCs were dissociated and then immediately re-plated, and further incubated with NP medium supplemented with 50-100 μM S18 and 0.1-2 μM S1P or S1P analogs. NPCs were either transplanted into brain or spinal cord or in vitro differentiated in differentiation medium.
For incubation with S18 and S1P (or S1P) analogs add: 50-100 μM S18; 0.1-2 μM S1P or S1P analogs (FTY720, SEW2871, VPC24191 or related compounds) to EB and NP medium. The incubation time can vary from 24-72 h.
(§2) In vitro, treatment with a combination of S18 and S1P or S1P analogs (FTY720, VPC24191, SEW2871) increases the number of oligodendrocyte precursors (ODPCs) by about 20-fold (Table 1). […] This observation was unexpected and novel, because it has not been shown before that combined treatment with S18 and S1P analogs can enrich for ODPCs.

Series [2] relates to EB-derived cells (EBCs). As to the kind of experiment: S18-induced apoptosis / elimination of EB-derived cell sub-populations and protection by S1P analogs. The class given is cell-based, mouse. The note with it: for protection of S18-sensitive NPCs (NPC2) from apoptosis: added to medium with S18. Here is the method: FIG. 4 illustrates making sphingolipid-enhanced neural stem cells (SENSe). FIG. 4A illustrates that mouse ES cells were differentiated to the attached EB stage and immunocytochemistry performed using antibodies against Oct-4 and S1P1. NPC2 cells show Oct-4(−) and S1P1(+). […] Expression of S1P1 protects them from S18-induced apoptosis if S1P or its analogs are added to the medium. FIG. 4B provides that there are three sub-populations of EB-derived cells (EBCs): 1) Residual pluripotent (Oct-4(+)/PAR-4(+)/S1P1(−) cells. […] They are not protected by S1P1; 2) NPC1 cells are Oct-4(−)/PAR-4(−)/S1P1(+) and represent nestin-expressing neural progenitors. […] FIG. 4C illustrates that NPC2 cells are stained for A2B5 epitope, a marker for oligodendrocyte precursor cells.
as §1, §2

For another series, the system named is primitive ectoderm cells. The following applies: suspension EBs; ref [3]; cited from earlier work.
In series [3] the test system is EB-derived cells (EBCs). The following applies: stage of forming NPCs; ref [5]; cited from earlier work.
The conditions of series [4]: cited from earlier work.

Entries after “also recorded” stand apart in the source; their conditions may differ.

For the compound `CCCCCCCCc1cccc(NC(=O)[C@H](N)COP(=O)(O)O)c1` [VPC23019], the “effect of S1P1 antagonist on the S1P and FTY720 effect” value in series [1] (VPC23019 2 μM) was “inhibits the effect of S1P and FTY720”.
`CCCCCCCCc1ccc(CCC(N)(CO)CO)cc1` [FTY720, 2-amino-2-[2-(4-octylphenyl)ethyl]propane-1,3-diol]: the “protection of S18-sensitive NPCs (NPC2) from apoptosis” value with EB-derived cells (EBCs) [2] is “rescue S18-sensitive NPCs from apoptosis; also recorded: can be protected”. In series [1], the “effect on the number of ODPCs” value is reported as “elevate the number of ODPCs” and the “increase of the number of oligodendrocyte precursors (ODPCs)” value (shortened to “increase”) was “about 20 fold”.
With `CCCCCCCC/C=C\CCCCCCCC(=O)NC(CO)CO` [S18, N-(2-hydroxy-1-(hydroxymethyl)ethyl)-oleoylamide], in the series on primitive ectoderm cells, the “primitive ectoderm formation after ceramide depletion” value was “restores primitive ectoderm formation”. For the same compound, the “elimination of Oct-4(+) cells from differentiating ES cells” value with EB-derived cells (EBCs) [3] is reported as “eliminates Oct-4(+) cells”. Further, in the series on EB-derived cells (EBCs) [2], the “S18-induced apoptosis in NPC1 (Oct-4(−)/PAR-4(−)/S1P1(+)) cells” value is recorded as “do not undergo S18-induced apoptosis”. Moreover, the “elimination of teratoma-forming residual pluripotent (Oct-4(+)/PAR-4(+)/S1P1(−)) cells” value in the series with EB-derived cells (EBCs) [2] (ES cell graft / EB-derived cells) was “specifically eliminate teratoma-forming cells; also recorded: are eliminated by S18”. In the series with EB-derived cells (EBCs) [2] (without S1P or FTY720), the “elimination of NPC2 (Oct-4(−)/PAR-4(+)/S1P1(+)) cells” value is “is also eliminated by S18; also recorded: are eliminated by S18”.
On to `CCCCCCCCCCCCC/C=C/[C@@H](O)[C@@H](N)COP(=O)(O)O` [S1P, sphingosine-1-phosphate], for which the “protection of S18-sensitive NPCs (NPC2) from apoptosis” value with EB-derived cells (EBCs) [2] is “rescue S18-sensitive NPCs from apoptosis; also recorded: can be protected”. Also, in series [1], the “effect on the number of ODPCs” value is listed as “elevate the number of ODPCs” and the “increase” value is on record as “about 20 fold”. In addition, the “ODPCs [% of total cells]” value in series [1] (VPC23019 2 μM) is on record as 12 +/− 3%.
`CCCCCCCCCCCCC/C=C/[C@@H](O)[C@H](CO)NC(C)=O` [C2 ceramide, N-acetyl sphingosine]: the “water solubility compared with physiological ceramide species (e.g. C16 ceramide)” value in series [4] is recorded as “several-fold higher”.
Turning to `CCCCCCCCc1ccc(NC[C@H](N)COP(=O)(O)O)cc1` [VPC24191], in series [1], the “effect on the number of ODPCs” value is on record as “elevate the number of ODPCs” and the “increase” value was “about 20 fold”. Further, the “ODPCs [% of total cells]” value in series [1] (VPC23019 2 μM) is 28 +/− 5%.
In the same order, the values of `FC(F)(F)c1cccc(-c2noc(-c3cc(-c4ccccc4)c(C(F)(F)F)s3)n2)c1` [SEW2871] are “elevate the number of ODPCs”, “about 20 fold” and 18 +/− 3%.
